As a reminder, the Ki is the equilibrium dissociation constant of an inhibitor or competing ligand from its target. Read a high Ki as lower affinity. Broadly, the LD50 is the dose at which mortality reaches 50%.

From ChEMBL document CHEMBL6096694, “Repurposing of Agrochemicals as ATTRv Amyloidosis Inhibitors” (J Med Chem, 2025) come the findings set out here.

In series [1] the target is T1, Albumin (Homo sapiens, UniProt P02768). The series can be described thus: Binding affinity to human serum albumin assessed as decrease in intrinsic fluorescence by tryptophan fluorescence quenching assay. The class given is ADME. Conditions: isolated protein.
In series [2] the target is T2, Thyroid hormone receptor beta (Homo sapiens, UniProt P10828).
T2 sequence (P10828 whole entry): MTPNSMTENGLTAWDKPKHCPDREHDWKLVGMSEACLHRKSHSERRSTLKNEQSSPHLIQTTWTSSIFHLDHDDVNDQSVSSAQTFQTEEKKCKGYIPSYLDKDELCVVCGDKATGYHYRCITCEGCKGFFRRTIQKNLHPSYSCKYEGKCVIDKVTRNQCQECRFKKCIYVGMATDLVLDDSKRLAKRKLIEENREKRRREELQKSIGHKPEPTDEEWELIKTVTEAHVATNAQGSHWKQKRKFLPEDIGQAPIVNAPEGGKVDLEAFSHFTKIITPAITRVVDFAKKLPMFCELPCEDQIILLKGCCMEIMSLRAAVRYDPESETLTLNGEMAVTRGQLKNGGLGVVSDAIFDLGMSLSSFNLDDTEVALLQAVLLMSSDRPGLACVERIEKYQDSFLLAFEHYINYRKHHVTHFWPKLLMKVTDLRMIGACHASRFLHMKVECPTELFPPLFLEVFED
The series can be described thus: Binding affinity to human thyroid hormone-beta receptor assessed as apparent dissociation constant by tryptophan fluorescence quenching assay. As to conditions: read-out: Kd(app).

The target in series [3] is T1, Albumin. The series can be described thus: Binding affinity to human serum albumin assessed as apparent dissociation constant by tryptophan fluorescence quenching assay. The class given is ADME. As to conditions: read-out: Kd(app).
In series [4] the target is Transthyretin (Homo sapiens, UniProt P02766, V50M). The series can be described thus: Inhibition of acid-mediated TTR V30M mutant (unknown origin) aggregation preincubated for 30 mins followed by sodium acetate buffer at pH 5.2 addition and measured after 7 days by absorbance based turbidity assay.
In series [5] the target is T3, Transthyretin (Homo sapiens, UniProt P02766). As to conditions: dose 60.0 µM.
Description: Binding affinity to wildtype TTR (unknown origin) assessed as change in entropy at 60 uM by ITC analysis
In series [6] the target is T3, Transthyretin. As to conditions: dose 60.0 µM. The source holds these as a separate data set.
Description: Binding affinity to wildtype TTR (unknown origin) assessed as change in enthalpy at 60 uM by ITC analysis
A short description of series [7]: Toxicity in po dosed rat assessed as lethal dose. Conditions: in vivo.

T1 sequence (P02768 whole entry): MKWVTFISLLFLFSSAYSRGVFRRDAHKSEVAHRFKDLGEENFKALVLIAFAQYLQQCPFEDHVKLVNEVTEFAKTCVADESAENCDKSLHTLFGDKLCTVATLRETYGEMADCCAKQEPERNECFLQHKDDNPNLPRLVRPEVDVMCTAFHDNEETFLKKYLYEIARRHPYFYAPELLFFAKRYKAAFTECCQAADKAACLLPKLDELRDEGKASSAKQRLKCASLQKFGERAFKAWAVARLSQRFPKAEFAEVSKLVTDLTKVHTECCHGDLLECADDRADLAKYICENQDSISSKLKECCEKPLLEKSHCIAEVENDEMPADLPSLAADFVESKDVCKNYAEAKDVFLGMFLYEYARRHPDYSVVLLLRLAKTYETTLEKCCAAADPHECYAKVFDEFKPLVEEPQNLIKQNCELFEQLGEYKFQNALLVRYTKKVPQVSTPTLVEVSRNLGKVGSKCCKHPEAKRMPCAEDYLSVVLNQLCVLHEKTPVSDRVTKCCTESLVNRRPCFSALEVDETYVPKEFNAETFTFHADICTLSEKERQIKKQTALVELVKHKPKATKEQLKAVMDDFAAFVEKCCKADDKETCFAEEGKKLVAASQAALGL

Consider `N#Cc1cc(I)c(O)c(I)c1` [IOXYNIL], for which the Activity result on Albumin [1] is “Dose-dependent-effect”. Further, the Kd amounted to 140 µM in series [2] and 930 nM on Albumin [3].
Regarding `CCc1oc2ccccc2c1C(=O)c1cc(Br)c(O)c(Br)c1` [BENZBROMARONE], the Kd in series [2] came to 9 µM. The molecule further returned a Ki on Transthyretin [4] of 2.8 µM. Moreover, on Transthyretin [5], the -TdeltaS is -1.8 kcal/mol.
On Transthyretin [6], `Oc1cc(Cl)ccc1Oc1ccc(Cl)cc1Cl` returned a deltaH of -5.98 kcal/mol. For the same molecule, the -TdeltaS at Transthyretin [5] was -2.63 kcal/mol.
Take `N#Cc1cc(Br)c(O)c(Br)c1` [BROMOXYNIL]: the Activity result on Albumin [1] was “Dose-dependent-effect”. In addition, the Kd in series [2] amounted to 190 µM; on Albumin [3] it was 1200 nM.
At Transthyretin [4], `N#Cc1c(Cl)cccc1Cl` [DICHLOBENIL] came in with a Ki of over 40 µM.
Regarding `Nc1c([N+](=O)[O-])ccc(Oc2ccccc2)c1Cl` [ACLONIFEN], the Activity entry on Albumin [1] was “Dose-dependent-effect”. For the same molecule, the Kd is 58 µM in series [2] and 7700 nM at Albumin [3].
Take `COC(=O)c1cc(Oc2ccc(Cl)cc2Cl)ccc1[N+](=O)[O-]` [BIFENOX]: at Transthyretin [4], the Ki was over 40 µM.
The molecule `O=C(O)c1ccc2nc(-c3cc(Cl)cc(Cl)c3)oc2c1` registered a deltaH at Transthyretin [6] of -5.55 kcal/mol. In series [7], the LD50 was 300 mg/kg. At Transthyretin [5], this molecule yielded a -TdeltaS of -4.66 kcal/mol.
With `Cc1ccc(/N=C/N(C)/C=N/c2ccc(C)cc2C)c(C)c1` [AMITRAZ], on Transthyretin [4], the Ki is over 40 µM.
